# Results: patent US20240307487A1 (priority 2020, published 2024)
# Counter-ions that a name gives are not always drawn. Like-named read-outs stand apart in the source and are kept apart here. Where a SMILES comes first, the peptide text is derived from it.
# Tests used:
# [1] = test system: virus-host endosomal acidification; format: cell-based
# [2] = test system: spike-ACE2 mediated cell fusion; format: cell-based, human
# SARS-CoV-2 [3] = assay: microbe, parasite or virus in culture; format: cell-based
# SARS-CoV-2 [4] = format: cell-based
# SARS-CoV [5] = format: cell-based
# SARS-CoV [6] = test system: SARS-CoV; design: species or system mice; conditions: in vivo
# SARS-CoV-2 [7] = test system: SARS-CoV-2; design: species or system hamsters; conditions: in vivo
# SARS-CoV-2 [8] = conditions: cited from earlier work
# A(H1N1)pdm09 virus [9] = format: cell-based
# [10] = test system: endosomal acidification in MDCK cells; format: cell-based, canine
# SARS-CoV-2 [11] = format: binding
# A(H1N1)pdm09 virus [12] = format: binding
# MERS-CoV [13] = format: binding
# A(H7N9) virus [14] = format: binding
# rhinovirus [15] = format: binding; conditions: peptide coated on ELISA plate, bound virus by RT-qPCR
# SARS-CoV [16] = format: binding
# parainfluenza 3 (Para-3) = format: cell-based; conditions: 24 h post-infection
# SARS-CoV-2 [17] = test system: SARS-CoV-2
# MERS-CoV [18] = test system: MERS-CoV
# A(H7N9) virus [19] = test system: A(H7N9) virus
# rhinovirus [20] = test system: rhinovirus
# rhinovirus [21] = test system: rhinovirus; remark: listed apart in the source
# H1N1 HA1 protein = H1N1 HA1 protein (Influenza A virus, UniProt C3W5S1)
# MERS-CoV S protein = MERS-CoV S protein (Middle East respiratory syndrome-related coronavirus, UniProt K9N5Q8)
# in vitro [22] = conditions: dog
# in vitro [23] = conditions: African green monkey
# in vitro [24] = conditions: human
# [25] = in vivo; cited from earlier work
# SARS-CoV-2 [26] = conditions: cited from earlier work; remark: listed apart in the source
# Chain of H1N1 HA1 protein (C3W5S1 18-344 limits assumed): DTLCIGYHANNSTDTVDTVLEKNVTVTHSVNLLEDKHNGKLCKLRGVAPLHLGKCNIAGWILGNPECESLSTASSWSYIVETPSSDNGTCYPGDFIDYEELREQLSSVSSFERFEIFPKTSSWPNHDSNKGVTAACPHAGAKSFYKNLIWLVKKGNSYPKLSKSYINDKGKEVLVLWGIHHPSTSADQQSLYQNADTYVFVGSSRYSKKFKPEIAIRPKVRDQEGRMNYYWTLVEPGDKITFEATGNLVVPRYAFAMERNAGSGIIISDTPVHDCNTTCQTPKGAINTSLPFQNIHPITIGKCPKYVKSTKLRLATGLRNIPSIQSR
# Chain of MERS-CoV S protein (K9N5Q8 18-1353 limits assumed): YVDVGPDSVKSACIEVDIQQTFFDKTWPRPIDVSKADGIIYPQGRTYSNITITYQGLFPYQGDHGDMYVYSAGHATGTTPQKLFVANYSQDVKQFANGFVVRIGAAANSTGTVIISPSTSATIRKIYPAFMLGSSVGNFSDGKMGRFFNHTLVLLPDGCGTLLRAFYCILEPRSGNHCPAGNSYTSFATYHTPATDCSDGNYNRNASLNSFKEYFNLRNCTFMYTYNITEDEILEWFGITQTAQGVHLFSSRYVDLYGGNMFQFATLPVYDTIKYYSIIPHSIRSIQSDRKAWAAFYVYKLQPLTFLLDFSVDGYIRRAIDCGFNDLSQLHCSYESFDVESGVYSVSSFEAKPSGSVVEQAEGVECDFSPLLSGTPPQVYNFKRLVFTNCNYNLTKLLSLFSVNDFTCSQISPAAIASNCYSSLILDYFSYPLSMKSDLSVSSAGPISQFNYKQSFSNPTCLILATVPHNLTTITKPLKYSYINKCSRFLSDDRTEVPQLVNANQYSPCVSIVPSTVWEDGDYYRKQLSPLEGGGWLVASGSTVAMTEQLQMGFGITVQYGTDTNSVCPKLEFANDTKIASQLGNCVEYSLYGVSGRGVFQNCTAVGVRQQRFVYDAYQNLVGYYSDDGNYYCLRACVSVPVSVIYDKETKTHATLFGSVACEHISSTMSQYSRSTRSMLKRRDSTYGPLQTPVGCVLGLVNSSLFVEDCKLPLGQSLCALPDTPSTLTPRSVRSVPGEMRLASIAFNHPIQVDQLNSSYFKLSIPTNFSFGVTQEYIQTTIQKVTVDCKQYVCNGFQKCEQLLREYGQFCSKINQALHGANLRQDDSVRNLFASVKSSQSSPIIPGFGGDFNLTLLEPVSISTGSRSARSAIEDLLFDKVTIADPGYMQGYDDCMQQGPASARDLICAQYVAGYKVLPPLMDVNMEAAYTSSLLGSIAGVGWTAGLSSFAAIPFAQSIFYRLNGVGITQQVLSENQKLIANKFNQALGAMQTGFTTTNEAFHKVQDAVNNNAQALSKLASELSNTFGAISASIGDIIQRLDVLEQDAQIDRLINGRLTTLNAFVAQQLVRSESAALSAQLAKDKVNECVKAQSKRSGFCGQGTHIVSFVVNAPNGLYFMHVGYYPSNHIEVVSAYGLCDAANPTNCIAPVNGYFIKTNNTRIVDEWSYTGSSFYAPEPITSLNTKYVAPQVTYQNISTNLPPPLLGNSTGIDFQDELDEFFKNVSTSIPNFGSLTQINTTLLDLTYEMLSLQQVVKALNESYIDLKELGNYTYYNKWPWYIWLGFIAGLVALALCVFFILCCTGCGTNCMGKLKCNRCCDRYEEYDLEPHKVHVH
smiles,measurement,setting,value
"CO/C1=C\C(C)=C\[C@@H](C)[C@@H](O)[C@@H](C)C/C(C)=C/C=C/[C@H](OC)[C@@H]([C@@H](C)[C@@H](O)[C@H](C)[C@@]2(O)C[C@@H](O)[C@H](C)[C@@H](C(C)C)O2)OC1=O [bafilomycin A1, reference compound]",inhibition of virus-host endosomal acidification,[1],could efficiently inhibit
same,spike-ACE2 mediated cell membrane fusion,[2],could inhibit spike-ACE2 mediated cell membrane fusion
CCN(CC)CCCC(C)Nc1ccnc2cc(Cl)ccc12 (stereo not shown) [chloroquine],SARS-CoV-2 replication in Vero-E6 cells,SARS-CoV-2 [3],could significantly inhibit SARS-CoV-2 replication in Vero-E6 cells
same,enhancement of antiviral activity of arbidol against SARS-CoV-2,SARS-CoV-2 [3],could significantly enhance the antiviral activity of arbidol
same,SARS-CoV-2 replication in Calu-3 cells,SARS-CoV-2 [4],not in Calu-3 cells
same,enhancement of antiviral activity of arbidol against SARS-CoV,SARS-CoV [5],could significantly enhance the antiviral activity of arbidol
same,SARS-CoV replication in mouse lungs,SARS-CoV [6],could not inhibit SARS-CoV replication in mouse lungs
same,SARS-CoV-2 replication in hamster lungs,SARS-CoV-2 [7],could not significantly inhibit SARS-CoV-2 replication in hamsters
same,SARS-CoV-2 replication in Calu-3 cells,SARS-CoV-2 [8],did not inhibit SARS-CoV-2 replication in Calu-3 cells
CC[C@H](C)[C@H](NC(=O)[C@H](C)NC(=O)CNC(=O)[C@@H](N)CC(N)=O)C(=O)N[C@@H](CS)C(=O)N[C@@H](Cc1c[nH]c2ccccc12)C(=O)NCC(=O)N1CCC[C@H]1C(=O)N[C@@H](CS)C(=O)N1CCC[C@H]1C(=O)N[C@H](C(=O)N[C@@H](C)C(=O)N[C@@H](Cc1ccccc1)C(=O)N[C@@H](CCCNC(=N)N)C(=O)N[C@@H](CCC(N)=O)C(=O)N[C@H](C(=O)NCC(=O)N[C@@H](CC(N)=O)C(=O)N[C@@H](CS)C(=O)NCC(=O)N[C@@H](CCCNC(=N)N)C(=O)N[C@@H](Cc1ccccc1)C(=O)N[C@@H](CCCNC(=N)N)C(=O)N[C@H](C(=O)N[C@@H](CCCNC(=N)N)C(=O)N[C@@H](CS)C(=O)N[C@@H](CS)C(=O)N[C@@H](CCCNC(=N)N)C(=O)N[C@H](C(=O)N[C@@H](CCCNC(=N)N)C(=O)O)[C@@H](C)CC)C(C)C)[C@@H](C)CC)[C@@H](C)O [P9R] (H-NGAICWGPCPTAFRQIGNCGRFRVRCCRIR-OH),inhibition against A(H1N1)pdm09 virus compared with P9,A(H1N1)pdm09 virus [9],significantly stronger inhibition
same,inhibition of endosomal acidification (no-virus endosomes),[10],could more significantly inhibit endosomal acidification
same,inhibition of virus-host endosomal acidification,[1],could efficiently inhibit
same,binding to SARS-CoV-2,SARS-CoV-2 [11],could efficiently bind
same,binding to A(H1N1)pdm09 virus,A(H1N1)pdm09 virus [12],could efficiently bind
same,binding to MERS-CoV,MERS-CoV [13],could also bind
same,binding to A(H7N9) virus,A(H7N9) virus [14],could also bind
same,binding to rhinovirus,rhinovirus [15],could also bind
same,binding to SARS-CoV,SARS-CoV [16],could also bind
same,parainfluenza 3 viral RNA in LLC-MK2 cells,parainfluenza 3 (Para-3),inhibits parainfluenza 3 in LLC-MK2 cells
same,IC50 against SARS-CoV-2,SARS-CoV-2 [17],0.9 µg/mL
same,inhibition against MERS-CoV compared with P9,MERS-CoV [18],significantly stronger inhibition
same,inhibition against A(H7N9) virus compared with P9,A(H7N9) virus [19],significantly stronger inhibition
same,inhibition against rhinovirus compared with P9,rhinovirus [20],significantly stronger inhibition
same,"inhibition of viral replication, rhinovirus",rhinovirus [21],> 20 fold
same,binding to viral proteins: H1N1 HA1 protein,H1N1 HA1 protein,could also bind
same,binding to viral proteins: MERS-CoV S protein,MERS-CoV S protein,could also bind
same,CC50 at 24 h,in vitro [22],> 300 µg/mL
same,CC50 at 24 h,in vitro [23],> 300 µg/mL
same,CC50 at 24 h,in vitro [24],> 300 µg/mL
CCOC(=O)c1c(CSc2ccccc2)n(C)c2cc(Br)c(O)c(CN(C)C)c12 [arbidol],IC50,"SARS-CoV-2 [3]; Severe acute respiratory syndrome coronavirus 2, Vero C1008, 24 h, read-out: normal IC50 of arbidol against SARS-CoV-2",3.6 µg/mL
same,peak serum concentration,[25],lower than 2 μg ml-1
"CC[C@H](C)[C@H](NC(=O)[C@H](C)NC(=O)CNC(=O)[C@@H](N)CC(N)=O)C(=O)N[C@@H](CS)C(=O)N[C@@H](Cc1c[nH]c2ccccc12)C(=O)NCC(=O)N1CCC[C@H]1C(=O)N[C@@H](CS)C(=O)N1CCC[C@H]1C(=O)N[C@H](C(=O)N[C@@H](C)C(=O)N[C@@H](Cc1ccccc1)C(=O)N[C@@H](CCCNC(=N)N)C(=O)N[C@@H](CCC(N)=O)C(=O)N[C@H](C(=O)NCC(=O)N[C@@H](CC(N)=O)C(=O)N[C@@H](CS)C(=O)NCC(=O)N[C@@H](Cc1c[nH]cn1)C(=O)N[C@@H](Cc1ccccc1)C(=O)N[C@@H](CCCCN)C(=O)N[C@H](C(=O)N[C@@H](CCCNC(=N)N)C(=O)N[C@@H](CS)C(=O)N[C@@H](CS)C(=O)N[C@@H](CCCCN)C(=O)N[C@H](C(=O)N[C@@H](CCCNC(=N)N)C(=O)O)[C@@H](C)CC)C(C)C)[C@@H](C)CC)[C@@H](C)O [P9, reference compound]",IC50 against SARS-CoV-2,SARS-CoV-2 [17],2.4 µg/mL
same,IC50 against parainfluenza virus 3,parainfluenza virus 3,> 25.0 µg/mL
"CN(C)C(=O)COC(=O)Cc1ccc(OC(=O)c2ccc(NC(=N)N)cc2)cc1 [camostat, Camostat mesylate]",SARS-CoV replication in mouse lungs,SARS-CoV [6],could not inhibit viral replication
same,SARS-CoV-2 replication in hamster lungs,SARS-CoV-2 [7],could not significantly inhibit SARS-CoV-2 replication in hamsters
same,SARS-CoV-2 replication in Calu-3 cells,SARS-CoV-2 [8],could significantly inhibit SARS-CoV-2 replication in Calu-3 cells
same,SARS-CoV-2 replication in Vero-E6 cells,SARS-CoV-2 [26],could not inhibit SARS-CoV-2 replication
